Measured values published in PubChem BioAssay AID248 (DTP/NCI, 2004).
Values joined by “and” are separate entries in the source; they are usually repeats but may differ in a detail not shown here. Equal entries are not always repeated. Inconclusive results and toxic doses are left out.

Tested on: L1210 leukemia ip in BDF1 mice, survival T/C
Test: NCI In Vivo Anticancer Drug Screen. Data for tumor model L1210 Leukemia (intraperitoneal) in B6D2F1 (BDF1) mice
Details: endpoint: mean survival time, higher = longer survival
Procedure, shortened: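 Ratio derived from survival: compound-dosed mice over vehicle-dosed mice, all bearing a transplantable tumor.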

[1] = dose: 100.0 mg/kg/injection, schedule: Q01DX009 (ip), vehicle: Klucel (hydroxypropylcellulose) (HPC)
[2] = dose: 100.0 mg/kg/injection, schedule: Q04DX003 (ip), vehicle: Klucel (hydroxypropylcellulose) (HPC)
[3] = dose: 200.0 mg/kg/injection, schedule: Q01DX009 (ip), vehicle: Klucel (hydroxypropylcellulose) (HPC)
[4] = dose: 200.0 mg/kg/injection, schedule: Q04DX003 (ip), vehicle: Klucel (hydroxypropylcellulose) (HPC)
[5] = dose: 400.0 mg/kg/injection, schedule: Q01DX009 (ip), vehicle: Klucel (hydroxypropylcellulose) (HPC)
[6] = dose: 400.0 mg/kg/injection, schedule: Q04DX003 (ip), vehicle: Klucel (hydroxypropylcellulose) (HPC)
[7] = dose: 100.0 mg/kg/injection, schedule: Q01DX Z (ip), vehicle: methylcellulose (MC)
[8] = dose: 200.0 mg/kg/injection, schedule: Q01DX001 (ip), vehicle: carboxymethylcellulose (CMC)
[9] = dose: 200.0 mg/kg/injection, schedule: Q01DX001 (ip), vehicle: saline
[10] = dose: 400.0 mg/kg/injection, schedule: Q01DX001 (ip), vehicle: carboxymethylcellulose (CMC)
[11] = dose: 100.0 mg/kg/injection, schedule: Q01DX001 (ip), vehicle: saline
[12] = dose: 100.0 mg/kg/injection, schedule: Q01DX009 (ip), vehicle: saline with Tween-80
[13] = dose: 200.0 mg/kg/injection, schedule: Q01DX009 (ip), vehicle: saline with Tween-80

SMILES: CCCCCC(OCC)(OCC)OCC
- T/C [1]: 95 % of control
- T/C [2]: 104 % of control
- T/C [3]: 96 % of control
- T/C [4]: 93 % of control
- T/C [5]: 92 % of control
- T/C [6]: 93 % of control

SMILES: Cc1ccccc1NC(=O)NCCc1ccccc1
- T/C [1]: 93 % of control
- T/C [2]: 88 % of control
- T/C [3]: 91 % of control
- T/C [4]: 93 % of control
- T/C [5]: 98 % of control
- T/C [6]: 90 % of control

SMILES: Cc1ccc(N=Cc2cc(Br)cc(Br)c2O)cc1.Cc1ccc(N=Cc2cc(Br)cc(Br)c2O)cc1.[Co]
- T/C (dose: 25.0 mg/kg/injection, schedule: Q04DX003 (ip), vehicle: saline with Tween-80): 104 % of control
- T/C (dose: 50.0 mg/kg/injection, schedule: Q04DX003 (ip), vehicle: saline with Tween-80): 100 % of control
- T/C (dose: 100.0 mg/kg/injection, schedule: Q04DX003 (ip), vehicle: saline with Tween-80): 100 % of control

SMILES: O=c1c2cc([N+](=O)[O-])ccc2[nH]c2c1ccc1ccccc12
- T/C (dose: 100.0 mg/kg/injection, schedule: Q04DX003 (ip), vehicle: saline): 92 % of control
- T/C (dose: 200.0 mg/kg/injection, schedule: Q04DX003 (ip), vehicle: saline): 92 % of control
- T/C (dose: 400.0 mg/kg/injection, schedule: Q04DX003 (ip), vehicle: saline): 90 % of control

SMILES: CSc1ncc(Br)c(Sc2nc(N)nc3nc[nH]c23)n1
- T/C (dose: 0.25 mg/kg/injection, schedule: Q01DX Z (ip), vehicle: other): 107 % of control
- T/C (dose: 0.5 mg/kg/injection, schedule: Q01DX Z (ip), vehicle: other): 103 % of control
- T/C (dose: 1.0 mg/kg/injection, schedule: Q01DX Z (ip), vehicle: methylcellulose (MC)): 98 % of control
- T/C (dose: 1.0 mg/kg/injection, schedule: Q01DX Z (ip), vehicle: other): 103 % of control
- T/C (dose: 3.0 mg/kg/injection, schedule: Q01DX Z (ip), vehicle: carboxymethylcellulose (CMC)): 121 % of control
- T/C (dose: 3.0 mg/kg/injection, schedule: Q01DX Z (ip), vehicle: methylcellulose (MC)): 97 % of control
- T/C (dose: 6.0 mg/kg/injection, schedule: Q01DX Z (ip), vehicle: methylcellulose (MC)): 107 % of control
- T/C (dose: 10.0 mg/kg/injection, schedule: Q01DX001 (ip), vehicle: saline with Tween-80): 156 % of control
- T/C (dose: 12.0 mg/kg/injection, schedule: Q01DX001 (ip), vehicle: saline with Tween-80): 190 % of control
- T/C (dose: 12.0 mg/kg/injection, schedule: Q01DX Z (ip), vehicle: carboxymethylcellulose (CMC)): 158 % of control
- T/C (dose: 14.0 mg/kg/injection, schedule: Q01DX001 (ip), vehicle: saline with Tween-80): 200 % of control
- T/C (dose: 19.0 mg/kg/injection, schedule: Q01DX001 (ip), vehicle: saline with Tween-80): 162 % of control
- T/C (dose: 29.0 mg/kg/injection, schedule: Q01DX001 (ip), vehicle: saline): 244 % of control
- T/C (dose: 30.0 mg/kg/injection, schedule: Q01DX001 (ip), vehicle: saline with Tween-80): 162 % of control
- T/C (dose: 32.0 mg/kg/injection, schedule: Q01DX Z (ip), vehicle: other): 96 % of control
- T/C (dose: 33.5 mg/kg/injection, schedule: Q01DX Z (ip), vehicle: carboxymethylcellulose (CMC)): 107 % of control
- T/C (dose: 44.0 mg/kg/injection, schedule: Q01DX001 (ip), vehicle: saline with Tween-80): 164 % of control
- T/C (dose: 45.0 mg/kg/injection, schedule: Q01DX001 (ip), vehicle: saline): 236 % of control
- T/C (dose: 48.0 mg/kg/injection, schedule: Q01DX Z (ip), vehicle: carboxymethylcellulose (CMC)): 103 % of control
- T/C (dose: 50.0 mg/kg/injection, schedule: Q01DX001 (ip), vehicle: carboxymethylcellulose (CMC)): 158 % of control
- T/C (dose: 66.0 mg/kg/injection, schedule: Q01DX001 (ip), vehicle: saline): 101 % of control
- T/C (dose: 100.0 mg/kg/injection, schedule: Q01DX001 (ip), vehicle: saline with Tween-80): 104 % of control
- T/C [7]: 91 % of control
- T/C (dose: 150.0 mg/kg/injection, schedule: Q01DX001 (ip), vehicle: saline with Tween-80): 120 % of control
- T/C (dose: 150.0 mg/kg/injection, schedule: Q01DX001 (ip), vehicle: saline): 105 % of control
- T/C [8]: 103 % of control
- T/C [9]: 122 % of control
- T/C [10]: 94 % of control
- T/C (dose: 400.0 mg/kg/injection, schedule: Q01DX001 (ip), vehicle: saline): 99 % of control

SMILES: C=CCSc1cccc(Cl)c1
- T/C [11]: 101 % of control
- T/C [9]: 96 % of control

SMILES: O=c1ccnc(SCc2ccccc2Cl)[nH]1
- T/C [7]: 91 % of control
- T/C (dose: 200.0 mg/kg/injection, schedule: Q01DX Z (ip), vehicle: methylcellulose (MC)): 91 % of control

SMILES: NC1=CCNC(=O)N1c1ccccc1
- T/C [7]: 105 % of control

SMILES: CCOC(=O)CNC(=O)Cn1ccc(=O)[nH]c1=O
- T/C (dose: 50.0 mg/kg/injection, schedule: Q01DX001 (ip), vehicle: saline): 96 % of control
- T/C [11]: 98 % of control
- T/C [9]: 98 % of control

SMILES: CC(Cc1ccccc1)N(C)CC1C(=O)C2CCC1C2 (stereo not given)
- T/C (dose: 75.0 mg/kg/injection, schedule: Q01DX001 (ip), vehicle: carboxymethylcellulose (CMC)): 102 % of control
- T/C (dose: 150.0 mg/kg/injection, schedule: Q01DX001 (ip), vehicle: carboxymethylcellulose (CMC)): 96 % of control
- T/C (dose: 300.0 mg/kg/injection, schedule: Q01DX001 (ip), vehicle: carboxymethylcellulose (CMC)): 96 % of control

SMILES: O=C1NCCCN1
- T/C (dose: 100.0 mg/kg/injection, schedule: Q04DX003 (ip), vehicle: saline sonified): 104 % of control
- T/C (dose: 200.0 mg/kg/injection, schedule: Q04DX003 (ip), vehicle: saline sonified): 102 % of control
- T/C (dose: 400.0 mg/kg/injection, schedule: Q04DX003 (ip), vehicle: saline sonified): 101 % of control

SMILES: CC1(C)OC2C(CO)OC(n3nnc4c(SCc5ccccc5)nc(N)nc43)C2O1 (stereo not given)
- T/C (dose: 100.0 mg/kg/injection, schedule: Q01DX001 (ip), vehicle: Klucel (hydroxypropylcellulose) (HPC)): 98 % of control
- T/C (dose: 200.0 mg/kg/injection, schedule: Q01DX001 (ip), vehicle: Klucel (hydroxypropylcellulose) (HPC)): 92 % of control
- T/C (dose: 400.0 mg/kg/injection, schedule: Q01DX001 (ip), vehicle: Klucel (hydroxypropylcellulose) (HPC)): 101 % of control

SMILES: C[C@]12CC[C@@H]3c4ccc(Oc5nc(N6CC6)nc(N6CC6)n5)cc4CC[C@H]3[C@@H]1CCC2=O
- T/C (dose: 25.0 mg/kg/injection, schedule: Q01DX009 (ip), vehicle: steriod suspending solution): 101 % of control
- T/C (dose: 25.0 mg/kg/injection, schedule: Q01DX009 (oral), vehicle: carboxymethylcellulose (CMC)): 106 % of control
- T/C (dose: 25.0 mg/kg/injection, schedule: Q04DX003 (sc), vehicle: steriod suspending solution): 106 % of control
- T/C (dose: 50.0 mg/kg/injection, schedule: Q01DX009 (oral), vehicle: carboxymethylcellulose (CMC)): 101 % of control
- T/C (dose: 50.0 mg/kg/injection, schedule: Q04DX003 (sc), vehicle: steriod suspending solution): 98 % of control
- T/C (dose: 100.0 mg/kg/injection, schedule: Q01DX001 (sc), vehicle: steriod suspending solution): 105 % of control
- T/C (dose: 100.0 mg/kg/injection, schedule: Q01DX009 (oral), vehicle: carboxymethylcellulose (CMC)): 104 % of control
- T/C (dose: 100.0 mg/kg/injection, schedule: Q04DX003 (sc), vehicle: steriod suspending solution): 101 % of control
- T/C (dose: 200.0 mg/kg/injection, schedule: Q01DX001 (sc), vehicle: steriod suspending solution): 118 % of control
- T/C (dose: 400.0 mg/kg/injection, schedule: Q01DX001 (sc), vehicle: steriod suspending solution): 107 % of control

SMILES: Cc1cc(Cl)c(Cl)cc1NC(=O)c1ccc(Cl)c(Cl)c1
- T/C [12]: 94 % of control and 101 % of control
- T/C [13]: 101 % of control
- T/C (dose: 400.0 mg/kg/injection, schedule: Q01DX009 (ip), vehicle: saline with Tween-80): 102 % of control and 104 % of control

SMILES: O=C(Nc1ncc(S(=O)(=O)c2ccc([N+](=O)[O-])cc2)s1)C(F)(F)F
- T/C [12]: 94 % of control
- T/C [13]: 99 % of control

SMILES: O=[N+]([O-])c1cc(N(c2ccccc2)c2ccccc2)cc([N+](=O)[O-])c1
- T/C (dose: 100.0 mg/kg/injection, schedule: Q01DX001 (ip), vehicle: carboxymethylcellulose (CMC)): 103 % of control
- T/C [8]: 108 % of control
- T/C [10]: 103 % of control

SMILES: O=C(O)CC/C(=N/O)c1ccccc1
- T/C (dose: 50.0 mg/kg/injection, schedule: Q01DX009 (ip), vehicle: Klucel (hydroxypropylcellulose) (HPC)): 93 % of control
- T/C [1]: 98 % of control
- T/C [3]: 92 % of control
